Source: patent publication US20160108049A1 (TAKEDA Gmbh, priority 2011, published 2016)

Experiments:
PDE4B1 = target: T1, PDE4B1 (Homo sapiens, UniProt Q07343); assay: Inhibition of PDE4 activity (PDE4B1, SPA assay); assay type: biochemical; details: recombinant PDE4B1, 0.5 μM cAMP; read-out: PDE4B1 Inhibitory values measured as -logIC50 (converted)
T1 construct: made in house; host or cells: SF21 insect cells (baculovirus; virus made in SF9 cells, pCR-Bac vector)
Method: Method for Measuring Inhibition of PDE4 Activity
The PDE4B1 (GB no. L20966) was a gift of Prof. M. Conti (Stanford University, USA). It was amplified from the original plasmid (pCMV5) via PCR with primers Rb18 (5′-[…]-3′) and Rb10 (5′-[…]-3′) and cloned into the pCR-Bac vector (Invitrogen, Groningen, NL).
The recombinant baculovirus was prepared by means of homologous recombination in SF9 insect cells. The expression plasmids were cotransfected with Baculo-Gold DNA (Pharmingen, Hamburg) using a standard protocol (Pharmingen, Hamburg). Wt virus-free recombinant virus supernatants were selected using plaque assay methods. After that, high-titre virus supernatants were prepared by amplifying 3 times. PDE4B1 was expressed in SF21 cells by infecting 2×10^6 cells/ml with an MOI (multiplicity of infection) between 1 and 10 in the serum-free SF900 medium (GIBCO Life Technologies, Karlsruhe, Germany) The cells were cultured at 28° C. for 48-72 hours, after which they were pelleted for 5-10 min at 1000×g and 4° C.
The SF21 insect cells were resuspended, at a concentration of approx. 10^7 cells/ml, in ice-cold (4° C.) homogenization buffer (20 mM Tris, pH 8.2, containing the following additions: 140 mM NaCl, 3.8 mM KCl, 1 mM EGTA, 1 mM MgCl2, 10 mM β-mercaptoethanol, 2 mM benzamidine, 0.4 mM Pefablock, 10 μM leupeptin, 10 μM pepstatin A, 5 μM trypsin inhibitor) and disrupted by ultrasonication. The homogenate was then centrifuged for 10 min at 1000×g and the supernatant was stored at −80° C. until subsequent use (see below). The protein content was determined by the Bradford method (BioRad, Munich) using BSA (Bovine serum albumin) as the standard.
PDE4B1 activities were measured in a 96-well platform using SPA (scintillation proximity assay) yttrium silicate beads (RPNQ1050 from GE Healthcare). In a first step the PDE activity operated hydrolysis of either [^3H] cAMP (substrate) into […]. In a second step substrate and product were distinguished following addition of SPA yttrium silicate beads. […] Close proximity of bound [^3H] […] The test volume was 100 μl and finally contained 20 mM Tris buffer (pH 7.4), 0.1 mg/ml of BSA, 5 mM Mg^2+, 0.5 μM cAMP (including about 50,000 cpm of [3H]cAMP) as substrate, 1 μl of the respective substance dilution in DMSO and sufficient recombinant PDE (1000×g supernatant, see above) to ensure that 10-20% of the cAMP was converted under the said experimental conditions. […] After a preincubation of 5 min at 37° C., the reaction was commenced by adding the substrate (cAMP) and the assays were incubated for a further 15 min. Reactions were terminated by adding SPA beads (50 μl). In agreement with the manufacturer's instructions, the SPA beads had previously been resuspended in water, but were then diluted 1:3 (v/v) in water. This diluted solution further contained 3 mM IBMX (isobutylmethylxanthine) to ensure a complete block of PDE activity. Once the beads were sedimented (>30 min), the MTP's (micro titerplate) were analyzed in commercially available […]. The corresponding IC50 values of the compounds for inhibition of PDE4B1 activity were determined from the concentration-effect curves by means of non-linear regression.
(§1) The numbers of the compounds correspond to the numbers of the examples.

human PDE5 = target: T2, human PDE5 (Homo sapiens, UniProt O76074); assay: Inhibition of PDE5 activity (platelet lysate, SPA assay); assay type: biochemical; details: 0.5 μM cGMP, read-out: PDE5 Inhibitory values measured as -logIC50 (converted)
T2 construct: from tissue; host or cells: human platelets from fresh donor blood (platelet lysate)
Method: Method for Measuring Inhibition of PDE5 Activity
As a source for human PDE5, platelets were used. For that purpose, 150 ml fresh blood from human donors anticoagulated with citrate [final concentration 0.3% (w/v)] was centrifuged at 200 g for 10 min to obtain the so-called platelet-rich-plasma (PRP) as a supernatant. […] After centrifugation (1,400 g, 10 min) the cell pellet was resuspended in 3 ml homogenization buffer (NaCl 140 mM, KCl 3.8 mM, EGTA (ethylene glycol tetraacetic acid) 1 mM, MgCl2 1 mM, Tris-HCl 20 mM, beta-mercaptoethanol 1 mM, pH 8.2) plus protease-inhibitor mix resulting in final concentrations of 0.5 mM Pefablock (Roche), 10 μM Leupeptin, 5 μM Trypsine inhibitor, 2 mM Benzamidin and 10 μM Pepstatin A. The suspension was sonicated and thereafter centrifuged for 15 min at 10,000 g. The resulting supernatant (platelet lysate) was used for enzymatic assays.
PDE5 activities were measured in a 96-well platform using SPA (scintillation proximity assay) yttrium silicate beads (RPNQ1050 from GE Healthcare). In a first step the PDE activity operated hydrolysis of either [^3H] cGMP (substrate) into [^3H] 5′GMP. In a second step substrate and product were distinguished following addition of SPA yttrium silicate beads. Indeed, in the presence of zinc sulphate the linear [^3H] […] Close proximity of bound [^3H] […] The test volume was 100 μl and contained 20 mM Tris buffer (pH 7.4), 0.1 mg of BSA (bovine serum albumin)/ml, 5 mM Mg^2+, 1 μM motapizone (PDE3 Inhibitor), 10 nM PDE2 inhibitor 2-(3,4-dimethoxybenzyl)-7-[(1R,2R)-2-hydroxy-1-(2-phenylethyl)propyl]-5-methylimidazo[5,1-f][1,2,4]triazin-4(3H)-one, 0.5 μM cGMP (cyclic guanosine monophosphate) (including about 50,000 cpm of [3H]cGMP as a tracer) (substrate), 1 μl of the respective compound dilution in dimethylsulfoxide (DMSO) and sufficient PDE5-containing platelet lysat (10,000×g supernatant, see above) to ensure that 10-20% of the cGMP was converted under the said experimental conditions. […] After a preincubation of 5 min at 37° C., the reaction was commenced by adding the substrate (cGMP) and the assay was incubated for a further 15 min. The reaction was terminated by adding SPA beads (50 μl). In agreement with the manufacturer's instructions, the SPA beads had previously been resuspended in water, but were then diluted 1:3 (v/v) in water. This diluted solution also contained 3 mM 8-methoxymethyl-3-isobutyl-1-methylxanthine (IBMX) to ensure a complete block of PDE activity. Once the beads were sedimented (>30 min), the MTP's were analyzed in commercially available luminescence detection devices. The corresponding IC50 values of the compounds for inhibition of PDE activity were determined from the concentration-effect curves by means of non-linear regression.
as §1

T1 sequence (Q07343 whole entry): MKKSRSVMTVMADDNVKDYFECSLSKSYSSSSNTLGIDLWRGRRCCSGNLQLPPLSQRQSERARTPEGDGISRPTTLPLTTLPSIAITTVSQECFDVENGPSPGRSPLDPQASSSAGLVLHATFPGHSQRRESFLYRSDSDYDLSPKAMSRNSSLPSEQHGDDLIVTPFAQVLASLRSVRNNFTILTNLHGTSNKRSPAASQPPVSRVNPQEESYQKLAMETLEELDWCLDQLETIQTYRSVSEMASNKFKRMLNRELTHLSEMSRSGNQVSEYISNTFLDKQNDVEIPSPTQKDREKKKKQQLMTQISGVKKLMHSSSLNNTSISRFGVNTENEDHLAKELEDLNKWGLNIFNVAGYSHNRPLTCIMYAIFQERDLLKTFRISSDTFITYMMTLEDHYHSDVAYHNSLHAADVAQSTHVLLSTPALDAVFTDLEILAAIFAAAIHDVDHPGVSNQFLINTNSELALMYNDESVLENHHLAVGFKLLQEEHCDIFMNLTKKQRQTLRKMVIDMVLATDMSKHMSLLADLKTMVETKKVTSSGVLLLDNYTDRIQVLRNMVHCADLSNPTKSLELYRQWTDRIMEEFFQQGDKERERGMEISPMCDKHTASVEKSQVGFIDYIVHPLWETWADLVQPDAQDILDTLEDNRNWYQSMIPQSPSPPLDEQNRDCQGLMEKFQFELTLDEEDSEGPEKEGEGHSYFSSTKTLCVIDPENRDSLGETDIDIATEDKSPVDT

IC50 (PDE4B1)	IC50 (human PDE5)	SMILES
1 to 10 nM	< 1 nM	COc1ccc(C2=NN(C3CCN(C(=O)[C@@H](Cc4cccc(C)c4)NC(=O)c4c[nH]c5c(-c6c(OCC7CC7)ccc7c6OCO7)ncnc45)CC3)C(=O)[C@@H]3CCCC[C@H]23)cc1OC [Example 20, 4-[5-(cyclopropylmethoxy)-1,3-benzodioxol-4-yl]-N-[(2R)-1-{4-[(4aS,8aR)-4-(3,4-dimethoxyphenyl)-1-oxo-4a,5,6,7,8,8a-hexahydrophthalazin-2(1H)-yl]piperidin-1-yl}-3-(3-methylphenyl)-1-oxopropan-2-yl]-5H-pyrrolo[3,2-d]pyrimidine-7-carboxamide]
< 1 nM	1 to 10 nM	COc1ccc(C2=NN(C3CCN(C(=O)[C@@H](Cc4ccc(C)cc4)NC(=O)c4c(C)[nH]c5c(-c6c(OCC7CC7)ccc7c6OCO7)ncnc45)CC3)C(=O)[C@@H]3CCCC[C@H]23)cc1OC [Example 15, 4-[5-(cyclopropylmethoxy)-1,3-benzodioxol-4-yl]-N-[(2R)-1-{4-[(4aS,8aR)-4-(3,4-dimethoxyphenyl)-1-oxo-4a,5,6,7,8,8a-hexahydrophthalazin-2(1H)-yl]piperidin-1-yl}-3-(4-methylphenyl)-1-oxopropan-2-yl]-6-methyl-5H-pyrrolo[3,2-d]pyrimidine-7-carboxamide]
< 1 nM	< 1 nM	COc1ccc(C2=NN(C3CCN(C(=O)[C@@H](Cc4ccccc4)NC(=O)c4c(C)[nH]c5c(-c6c(OCC7CC7)ccc7c6OCO7)ncnc45)CC3)C(=O)C(C)(C)C2)cc1OC [Example 66, 4-[5-(cyclopropylmethoxy)-1,3-benzodioxol-4-yl]-N-[(2R)-1-{4-[3-(3,4-dimethoxyphenyl)-5,5-dimethyl-6-oxo-5,6-dihydropyridazin-1(4H)-yl]piperidin-1-yl}-1-oxo-3-phenylpropan-2-yl]-6-methyl-5H-pyrrolo[3,2-d]pyrimidine-7-carboxamide]
1 to 10 nM	1 to 10 nM	COc1ccc(C2=NN(C3CCN(C(=O)CNC(=O)c4c[nH]c5c(-c6c(OCC7CC7)ccc7c6OCO7)ncnc45)CC3)C(=O)C(C)(C)C2)c2c1OC(C)(C)C2 [Example 117, 4-[5-(cyclopropylmethoxy)-1,3-benzodioxol-4-yl]-N-(2-{4-[3-(7-methoxy-2,2-dimethyl-2,3-dihydro-1-benzofuran-4-yl)-5,5-dimethyl-6-oxo-5,6-dihydropyridazin-1(4H)-yl]piperidin-1-yl}-2-oxoethyl)-5H-pyrrolo[3,2-d]pyrimidine-7-carboxamide]
< 1 nM	1 to 10 nM	COc1ccc(C2=NN(C3CCN(C(=O)[C@@H](Cc4ccccc4)NC(=O)c4c[nH]c5c(-c6c(OCC7CC7)ccc7c6OCO7)ncnc45)CC3)C(=O)C(C)(C)C2)cc1OC [Example 67, 4-[5-(cyclopropylmethoxy)-1,3-benzodioxol-4-yl]-N-[(2R)-1-{4-[3-(3,4-dimethoxyphenyl)-5,5-dimethyl-6-oxo-5,6-dihydropyridazin-1(4H)-yl]piperidin-1-yl}-1-oxo-3-phenylpropan-2-yl]-5H-pyrrolo[3,2-d]pyrimidine-7-carboxamide]
< 1 nM	< 1 nM	COc1ccc(C2=NN(C3CCN(C(=O)[C@@H](Cc4ccc(Cl)cc4Cl)NC(=O)c4c[nH]c5c(-c6c(OCC7CC7)ccc7c6OCO7)ncnc45)CC3)C(=O)[C@@H]3CCCC[C@H]23)cc1OC [Example 48, 4-[5-(cyclopropylmethoxy)-1,3-benzodioxol-4-yl]-N-[(2R)-3-(2,4-dichlorophenyl)-1-{4-[(4aS,8aR)-4-(3,4-dimethoxyphenyl)-1-oxo-4a,5,6,7,8,8a-hexahydrophthalazin-2(1H)-yl]piperidin-1-yl}-1-oxopropan-2-yl]-5H-pyrrolo[3,2-d]pyrimidine-7-carboxamide]
< 1 nM	< 1 nM	COc1ccc(C2=NN(C3CCN(C(=O)[C@@H](CCSC)NC(=O)c4c[nH]c5c(-c6c(OCC7CC7)ccc7c6OCO7)ncnc45)CC3)C(=O)[C@@H]3CCCC[C@H]23)cc1OC [Example 98, 4-[5-(cyclopropylmethoxy)-1,3-benzodioxol-4-yl]-N-[(2R)-1-{4-[(4aS,8aR)-4-(3,4-dimethoxyphenyl)-1-oxo-4a,5,6,7,8,8a-hexahydrophthalazin-2(1H)-yl]piperidin-1-yl}-4-(methylsulfanyl)-1-oxobutan-2-yl]-5H-pyrrolo[3,2-d]pyrimidine-7-carboxamide]
1 to 10 nM	1 to 10 nM	COc1ccc(C2=NN(C3CCN(C(=O)[C@H](CCC(=O)N4CCCC4)NC(=O)c4c[nH]c5c(-c6c(OCC7CC7)ccc7c6OCO7)ncnc45)CC3)C(=O)[C@@H]3CCCC[C@H]23)cc1OC [Example 102, 4-[5-(cyclopropylmethoxy)-1,3-benzodioxol-4-yl]-N-[(2S)-1-{4-[(4aS,8aR)-4-(3,4-dimethoxyphenyl)-1-oxo-4a,5,6,7,8,8a-hexahydrophthalazin-2(1H)-yl]piperidin-1-yl}-1,5-dioxo-5-(pyrrolidin-1-yl)pentan-2-yl]-5H-pyrrolo[3,2-d]pyrimidine-7-carboxamide]
1 to 10 nM	1 to 10 nM	COc1ccc(C2=NN(C3CCN(C(=O)CNC(=O)c4c[nH]c5c(-c6c(OCC7CC7)ccc7c6OCO7)ncnc45)CC3)C(=O)C3(CCCC3)C2)cc1OC [Example 122, 4-[5-(cyclopropylmethoxy)-1,3-benzodioxol-4-yl]-N-(2-{4-[9-(3,4-dimethoxyphenyl)-6-oxo-7,8-diazaspiro[4.5]dec-8-en-7-yl]piperidin-1-yl}-2-oxoethyl)-5H-pyrrolo[3,2-d]pyrimidine-7-carboxamide]
